Tests used:
[1] = Binding inhibitory activity of compound was evaluated against bacteriophage anti-gp120 monoclonal antibody by competition ELISA assay
[2] = Loss of affinity of compound was determined for bacteriophage anti-gp120 monoclonal antibody by competition ELISA assay; 16 fold loss in affinity was observed
[3] = Loss of affinity of compound was determined for bacteriophage anti-gp120 monoclonal antibody by competition ELISA assay; 10 fold loss in affinity was observed
[4] = Loss of affinity of compound was determined for bacteriophage anti-gp120 monoclonal antibody by competition ELISA assay; 3 fold loss in affinity was observed

Row | IC50 [1] [µM] | Loss of affinity [2] | Loss of affinity [3] | Loss of affinity [4] | Substance
1 | 10 | 16 |  |  | H-ESTAPM-OH
2 | 6.3 |  | 10 |  | H-ESARPM-OH

More lines, now with the values behind:

Row | Substance | IC50 [1] [µM] | Loss of affinity [2] | Loss of affinity [3] | Loss of affinity [4]
3 | H-ESTRPA-OH | 10 | 16 |  | 
4 | H-ESTRPM-OH | 0.63 |  |  | 
5 | H-EATRPM-OH | 6.3 |  | 10 | 
6 | H-ESTRAM-OH | 0.63 |  |  | 
7 | H-ASTRPM-OH | 1.8 |  |  | 3
